According to a compilation of properties of binary mixtures (doi:10.1016/j.jct.2020.106093):

Assay: xn = mol fraction of the nth substance listed
Conditions: 100.9 kPa

CC(=O)[O-].CC[NH2+]CC + O
Conditions | electrical conductivity [S/m] | speed of sound [m/s] | viscosity [mPa·s]
313.15 K, x1 = 0.351 | – | – | 19.49
313.15 K, x1 = 0.708 | – | 1494 | –
313.15 K, x1 = 0.714 | – | – | 33.5
313.15 K, x1 = 0.835 | – | 1461 | –
313.15 K, x1 = 0.84 | – | – | 34
315.65 K, x1 = 0.015 | – | – | 0.904
315.65 K, x1 = 0.055 | – | – | 1.89
315.65 K, x1 = 0.24 | – | – | 11.59
315.65 K, x1 = 0.351 | – | – | 17.57
315.65 K, x1 = 0.549 | – | – | 26.3
315.65 K, x1 = 0.84 | – | – | 30.6
318.15 K, x1 = 0.015 | 4.74 | 1608 | 0.862
318.15 K, x1 = 0.054 | 8.13 | – | –
318.15 K, x1 = 0.055 | – | 1732 | 1.774
318.15 K, x1 = 0.119 | – | 1782 | 3.94
318.15 K, x1 = 0.12 | 5.91 | – | –
318.15 K, x1 = 0.168 | 4.05 | 1758 | 6.11
318.15 K, x1 = 0.24 | 2.51 | 1699 | 10.54
318.15 K, x1 = 0.35 | – | 1636 | –
318.15 K, x1 = 0.351 | – | – | 15.87
318.15 K, x1 = 0.549 | – | 1526 | 23.7
318.15 K, x1 = 0.55 | 0.767 | – | –
318.15 K, x1 = 0.708 | – | 1479 | –
318.15 K, x1 = 0.714 | 0.609 | – | 27.2
318.15 K, x1 = 0.835 | – | 1446 | –
318.15 K, x1 = 0.838 | 0.498 | – | –
318.15 K, x1 = 0.84 | – | – | 27.6
318.15 K, x1 = 0.945 | 0.476 | – | –
320.65 K, x1 = 0.015 | – | – | 0.826
320.65 K, x1 = 0.055 | – | – | 1.67
320.65 K, x1 = 0.119 | – | – | 3.65
320.65 K, x1 = 0.168 | – | – | 5.63
320.65 K, x1 = 0.24 | – | – | 9.62
320.65 K, x1 = 0.351 | – | – | 14.41
320.65 K, x1 = 0.549 | – | – | 21.5
320.65 K, x1 = 0.714 | – | – | 24.6
320.65 K, x1 = 0.84 | – | – | 25
323.15 K, x1 = 0.015 | – | 1610 | 0.795
323.15 K, x1 = 0.055 | – | 1725 | 1.576
323.15 K, x1 = 0.119 | – | 1768 | 3.4
323.15 K, x1 = 0.168 | – | 1744 | 5.21
323.15 K, x1 = 0.24 | – | 1685 | 8.81
323.15 K, x1 = 0.35 | – | 1622 | –
323.15 K, x1 = 0.351 | – | – | 13.12
323.15 K, x1 = 0.549 | – | 1512 | 19.55
323.15 K, x1 = 0.708 | – | 1464 | –
323.15 K, x1 = 0.714 | – | – | 22.3
323.15 K, x1 = 0.835 | – | 1430 | –
323.15 K, x1 = 0.84 | – | – | 22.7
325.65 K, x1 = 0.015 | – | – | 0.757
325.65 K, x1 = 0.055 | – | – | 1.489
325.65 K, x1 = 0.119 | – | – | 3.17
325.65 K, x1 = 0.168 | – | – | 4.82
325.65 K, x1 = 0.24 | – | – | 8.09
325.65 K, x1 = 0.351 | – | – | 11.97
325.65 K, x1 = 0.549 | – | – | 17.76
325.65 K, x1 = 0.714 | – | – | 20.3
325.65 K, x1 = 0.84 | – | – | 20.6
328.15 K, x1 = 0.055 | – | – | 1.411
328.15 K, x1 = 0.119 | – | – | 2.97
328.15 K, x1 = 0.168 | – | – | 4.48
328.15 K, x1 = 0.24 | – | – | 7.45
328.15 K, x1 = 0.351 | – | – | 10.96
328.15 K, x1 = 0.714 | – | – | 18.53
328.15 K, x1 = 0.84 | – | – | 18.78
330.65 K, x1 = 0.24 | – | – | 6.88
330.65 K, x1 = 0.351 | – | – | 10.06
330.65 K, x1 = 0.549 | – | – | 14.78
330.65 K, x1 = 0.714 | – | – | 16.94
330.65 K, x1 = 0.84 | – | – | 17.14
333.15 K, x1 = 0.015 | 7.37 | – | 0.666
333.15 K, x1 = 0.054 | 13.1 | – | –
333.15 K, x1 = 0.055 | – | – | 1.273
333.15 K, x1 = 0.12 | 8.77 | – | –
333.15 K, x1 = 0.168 | 5.75 | – | 3.89
333.15 K, x1 = 0.24 | 3.65 | – | 6.37
333.15 K, x1 = 0.353 | 2 | – | –
333.15 K, x1 = 0.549 | – | – | 13.57
333.15 K, x1 = 0.714 | 0.802 | – | 15.52
333.15 K, x1 = 0.838 | 0.666 | – | –
333.15 K, x1 = 0.945 | 0.65 | – | –
335.65 K, x1 = 0.015 | – | – | 0.641
335.65 K, x1 = 0.055 | – | – | 1.213
335.65 K, x1 = 0.119 | – | – | 2.45
335.65 K, x1 = 0.24 | – | – | 5.91
335.65 K, x1 = 0.351 | – | – | 8.55
335.65 K, x1 = 0.549 | – | – | 12.48
335.65 K, x1 = 0.714 | – | – | 14.25
335.65 K, x1 = 0.84 | – | – | 14.39
338.15 K, x1 = 0.015 | – | – | 0.617
338.15 K, x1 = 0.055 | – | – | 1.159
338.15 K, x1 = 0.119 | – | – | 2.31
338.15 K, x1 = 0.168 | – | – | 3.4
338.15 K, x1 = 0.24 | – | – | 5.49
338.15 K, x1 = 0.351 | – | – | 7.91
338.15 K, x1 = 0.549 | – | – | 11.5
338.15 K, x1 = 0.714 | – | – | 13.11
338.15 K, x1 = 0.84 | – | – | 13.23
340.65 K, x1 = 0.015 | – | – | 0.595
340.65 K, x1 = 0.055 | – | – | 1.108
340.65 K, x1 = 0.119 | – | – | 2.18
340.65 K, x1 = 0.24 | – | – | 5.12
340.65 K, x1 = 0.351 | – | – | 7.33
340.65 K, x1 = 0.549 | – | – | 10.62
340.65 K, x1 = 0.714 | – | – | 12.08
340.65 K, x1 = 0.84 | – | – | 12.19
343.15 K, x1 = 0.015 | – | – | 0.574
343.15 K, x1 = 0.119 | – | – | 2.06
343.15 K, x1 = 0.168 | – | – | 3
343.15 K, x1 = 0.24 | – | – | 4.78
343.15 K, x1 = 0.351 | – | – | 6.81
343.15 K, x1 = 0.549 | – | – | 9.84
343.15 K, x1 = 0.714 | – | – | 11.16
343.15 K, x1 = 0.84 | – | – | 11.24
348.15 K, x1 = 0.007 | 3.01 | – | –
348.15 K, x1 = 0.015 | 10.1 | – | –
348.15 K, x1 = 0.054 | 16.6 | – | –
348.15 K, x1 = 0.12 | 10.6 | – | –
348.15 K, x1 = 0.168 | 7.47 | – | –
348.15 K, x1 = 0.24 | 4.92 | – | –
348.15 K, x1 = 0.945 | 1.09 | – | –
363.15 K, x1 = 0.007 | 3.4 | – | –
363.15 K, x1 = 0.015 | 12.9 | – | –
363.15 K, x1 = 0.054 | 17.4 | – | –
363.15 K, x1 = 0.12 | 11.6 | – | –
363.15 K, x1 = 0.24 | 5.47 | – | –
363.15 K, x1 = 0.353 | 3.65 | – | –
363.15 K, x1 = 0.55 | 2.24 | – | –
363.15 K, x1 = 0.714 | 1.67 | – | –
363.15 K, x1 = 0.838 | 1.32 | – | –
